Results taken from PubChem BioAssay AID1845199 (Molecular Pharmacology Branch, DTP, NCI, 2023).

Test system: 556581-035-R-J1 tumor spheroid viability, % test/control
Test: Anticancer human tumor 556581-035-R-J1 patient-derived ovarian carcinoma cell line growth inhibition
Conditions: spheroids with HUVEC and MSC; for IC50: curve of first compound; for viability, T/C: stronger effect = lower value
Summary of the method: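 Complex tumor spheroids combined malignant cells with endothelial cells and mesenchymal stem cells. DNA-damaging drugs and DNA repair inhibitors were tested alone and in combination, at half-log dilutions down from clinical Cmax (top 10 microM if Cmax unknown), 0.25% DMSO final.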

[1] = second compound 30 pM, first compound 0.0316 µM
[2] = second compound 30 pM, first compound 0.1 µM
[3] = second compound 30 pM, first compound 0.316 µM
[4] = second compound 30 pM, first compound 1 µM
[5] = second compound 30 pM, first compound 3.16 µM
[6] = second compound 30 pM, first compound 10 µM
[7] = second compound 94.9 pM, first compound 0.0316 µM
[8] = second compound 94.9 pM, first compound 0.1 µM
[9] = second compound 94.9 pM, first compound 0.316 µM
[10] = second compound 94.9 pM, first compound 1 µM
[11] = second compound 94.9 pM, first compound 3.16 µM
[12] = second compound 94.9 pM, first compound 10 µM
[13] = second compound 0.0003 µM, first compound 0.0316 µM
[14] = second compound 0.0003 µM, first compound 0.1 µM
[15] = second compound 0.0003 µM, first compound 0.316 µM
[16] = second compound 0.0003 µM, first compound 1 µM
[17] = second compound 0.0003 µM, first compound 3.16 µM
[18] = second compound 0.0003 µM, first compound 10 µM
[19] = second compound 0.000949 µM, first compound 0.0316 µM
[20] = second compound 0.000949 µM, first compound 0.1 µM
[21] = second compound 0.000949 µM, first compound 0.316 µM
[22] = second compound 0.000949 µM, first compound 1 µM
[23] = second compound 0.000949 µM, first compound 3.16 µM
[24] = second compound 0.000949 µM, first compound 10 µM
[25] = second compound 0.003 µM, first compound 0.0316 µM
[26] = second compound 0.003 µM, first compound 0.1 µM
[27] = second compound 0.003 µM, first compound 0.316 µM
[28] = second compound 0.003 µM, first compound 1 µM
[29] = second compound 0.003 µM, first compound 3.16 µM
[30] = second compound 0.003 µM, first compound 10 µM
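Also: spheroids exposed to compounds for 7 days before viability read.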

Row | SMILES | IC50 (second compound 30 pM) [nM] | IC50 (second compound 94.9 pM) [nM] | IC50 (second compound 0.0003 µM) [nM] | IC50 (second compound 0.000949 µM) [nM] | IC50 (second compound 0.003 µM) [nM] | viability, T/C [1] [%] | viability, T/C [2] [%] | viability, T/C [3] [%] | viability, T/C [4] [%] | viability, T/C [5] [%] | viability, T/C [6] [%] | viability, T/C [7] [%] | viability, T/C [8] [%] | viability, T/C [9] [%] | viability, T/C [10] [%] | viability, T/C [11] [%] | viability, T/C [12] [%] | viability, T/C [13] [%] | viability, T/C [14] [%] | viability, T/C [15] [%] | other results
1 | CC1COCCN1c1cc(-c2ccnn2C)c2ccnc(-c3ccn[nH]3)c2n1 (stereo not given) + COc1cc2c(cc1O)CCNC21CSC2c3c(OC(C)=O)c(C)c4c(c3C(COC1=O)N1C(O)C3Cc5cc(C)c(OC)c(O)c5C(C21)N3C)OCO4 | 786 | 426 | 59.2 | < 31.6 | < 31.6 | 93.9 | 74.6 | 59.1 | 48.5 | 38.2 | 34.4 | 73.7 | 62.5 | 51.8 | 44.2 | 38 | 34.4 | 53.6 | 45.7 | 43.1 | viability, T/C [16]: 43.8%; viability, T/C [17]: 37.6%; viability, T/C [18]: 32.3%; viability, T/C [19]: 7.45%; viability, T/C [20]: 4.92%; viability, T/C [21]: 5.53%; viability, T/C [22]: 6.39%; viability, T/C [23]: 3.31%; viability, T/C [24]: 0.59%; viability, T/C [25]: 0.82%; viability, T/C [26]: 0.83%; viability, T/C [27]: 1.19%; viability, T/C [28]: 0.43%; viability, T/C [29]: 0.43%; viability, T/C [30]: 0.72%
2 | COc1cc(C)[nH]c(=O)c1CN1CCc2c(Cl)cc(C(OC)C3COC3)c(Cl)c2C1=O (stereo not given) + COc1cc2c(cc1O)CCNC21CSC2c3c(OC(C)=O)c(C)c4c(c3C(COC1=O)N1C(O)C3Cc5cc(C)c(OC)c(O)c5C(C21)N3C)OCO4 | > 10000 | > 10000 | > 10000 | < 31.6 | < 31.6 | 106 | 108 | 105 | 115 | 116 | 113 | 103 | 101 | 108 | 111 | 108 | 110 | 92.4 | 95 | 100 | viability, T/C [16]: 101%; viability, T/C [17]: 98.2%; viability, T/C [18]: 93.7%; viability, T/C [19]: 44.6%; viability, T/C [20]: 46.5%; viability, T/C [21]: 41.4%; viability, T/C [22]: 36.7%; viability, T/C [23]: 32.1%; viability, T/C [24]: 17.6%; viability, T/C [25]: 0.61%; viability, T/C [26]: 0.67%; viability, T/C [27]: 2.15%; viability, T/C [28]: 0.7%; viability, T/C [29]: 0.66%; viability, T/C [30]: 1.02%
3 | Cc1cc(C)c(CNC(=O)c2cc(-c3ccc(CN4CCOCC4)cc3)cc3c2cnn3C2CCCC2)c(=O)[nH]1 + COc1cc2c(cc1O)CCNC21CSC2c3c(OC(C)=O)c(C)c4c(c3C(COC1=O)N1C(O)C3Cc5cc(C)c(OC)c(O)c5C(C21)N3C)OCO4 | > 10000 | > 10000 | > 10000 | < 31.6 | < 31.6 | 100 | 108 | 105 | 117 | 112 | 97.5 | 109 | 108 | 110 | 109 | 110 | 88.3 | 99.9 | 100 | 103 | viability, T/C [16]: 103%; viability, T/C [17]: 98.4%; viability, T/C [18]: 88.3%; viability, T/C [19]: 45.2%; viability, T/C [20]: 43.5%; viability, T/C [21]: 46%; viability, T/C [22]: 30.7%; viability, T/C [23]: 24.5%; viability, T/C [24]: 11.6%; viability, T/C [25]: 1.01%; viability, T/C [26]: 0.92%; viability, T/C [27]: 0.9%; viability, T/C [28]: 0.75%; viability, T/C [29]: 0.82%; viability, T/C [30]: 1.15%
4 | [2H]c1nc(C)nc([2H])c1-c1cc(NC[C@@H](C)c2cccc3c(C(=O)NC)ccnc23)ncn1 + COc1cc2c(cc1O)CCNC21CSC2c3c(OC(C)=O)c(C)c4c(c3C(COC1=O)N1C(O)C3Cc5cc(C)c(OC)c(O)c5C(C21)N3C)OCO4 | > 10000 | > 10000 | > 10000 | < 31.6 | < 31.6 | 105 | 119 | 116 | 120 | 110 | 116 | 113 | 118 | 108 | 113 | 118 | 125 | 101 | 110 | 102 | viability, T/C [16]: 104%; viability, T/C [17]: 108%; viability, T/C [18]: 109%; viability, T/C [19]: 40.9%; viability, T/C [20]: 46.4%; viability, T/C [21]: 42.9%; viability, T/C [22]: 46.3%; viability, T/C [23]: 33.9%; viability, T/C [24]: 31.1%; viability, T/C [25]: 1.6%; viability, T/C [26]: 0.73%; viability, T/C [27]: 0.75%; viability, T/C [28]: 0.97%; viability, T/C [29]: 1.05%; viability, T/C [30]: 1.32%
